Measured values from US20160303245A1, “FATTY ACID DERIVATIVES OF DIMERIC INHIBITORS OF PSD-95” (UNIVERSITY OF COPENHAGEN, priority 2013, published 2016).
Several values for one entry are separate records, joined by “and”; a condition that tells them apart may be missing. Equal entries are not always repeated. Where two headings read alike, the source gives them in different places.

Key:
[1] = molecular target: T1, HSA (Homo sapiens, UniProt P02768); test: Transil XL HSA binding assay (immobilized HSA, unbound compound quantified by RP-HPLC)
T1 construct: purchased Sovicell GMBH, Leipzig, Germany
T1 sequence (P02768 25-609): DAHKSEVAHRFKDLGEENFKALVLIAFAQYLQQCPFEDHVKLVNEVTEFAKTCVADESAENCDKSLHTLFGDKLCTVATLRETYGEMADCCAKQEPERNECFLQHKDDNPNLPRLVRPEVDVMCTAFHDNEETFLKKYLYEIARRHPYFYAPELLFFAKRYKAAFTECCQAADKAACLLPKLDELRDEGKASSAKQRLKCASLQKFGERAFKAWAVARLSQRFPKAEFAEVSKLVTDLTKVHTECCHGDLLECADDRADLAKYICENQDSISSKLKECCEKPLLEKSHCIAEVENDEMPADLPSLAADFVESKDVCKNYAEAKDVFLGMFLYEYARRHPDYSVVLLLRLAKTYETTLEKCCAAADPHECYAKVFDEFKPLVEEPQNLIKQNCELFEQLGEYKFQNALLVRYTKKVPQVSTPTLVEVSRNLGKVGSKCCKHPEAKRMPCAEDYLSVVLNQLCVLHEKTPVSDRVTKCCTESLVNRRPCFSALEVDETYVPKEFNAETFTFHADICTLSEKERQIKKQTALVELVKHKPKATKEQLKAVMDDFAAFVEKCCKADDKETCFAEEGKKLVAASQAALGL
Experimental: The synthesized FA-linked dimeric ligands (1-12) were evaluated for their HSA affinity using a Transil^XL HSA binding assay kit (Sovicell GMBH, Leipzig, Germany). […] The assay kit consisted of prefilled wells with increasing concentrations of immobilized HSA as well as two control wells without HSA. The HSA had been immobilized in a random fashion to ensure that all binding sites on HSA were available. To conduct the assay, the wells were incubated with a known concentration of the tested compounds, and the unbound amount of compound was quantified using analytical RP-HPLC (C8 column). The fraction of unbound drug (fu) for each data point was calculated from the RP-HPLC data by comparison to a control sample without HSA. […] In eq. 1, it is assumed that the concentration of drug-bound HSA ([HSA-D]) is much lower than the total concentration of HSA in the well ([HSA-D]<<cHSA). The assay kit has been designed such that the assumption is valid for compounds where fu>1%. The calculated KD-values were used to calculate fb at physiological concentration of HSA (588 μM) using equation 2.

[2] = molecular target: PSD-95 PDZ1-2 (Homo sapiens, UniProt P78352); test: In vitro fluorescence polarization (FP) competition binding assay, in TBS and modified with 1% HSA
Sequence of PSD-95 PDZ1-2 (P78352 61-249 limits assumed): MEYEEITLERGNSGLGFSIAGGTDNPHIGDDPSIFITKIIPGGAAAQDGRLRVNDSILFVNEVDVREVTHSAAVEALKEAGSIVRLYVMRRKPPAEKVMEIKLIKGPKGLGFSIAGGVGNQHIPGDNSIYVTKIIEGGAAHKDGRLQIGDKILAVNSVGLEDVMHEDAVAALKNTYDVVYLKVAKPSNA
Experimental: Affinity to PSD-95 was measured using an in vitro fluorescence polarization (FP) assay as described by Bach et al (PNAS USA, 2012, 109, 3317-3322). First, a saturation binding curve was obtained to determine KD values for the interaction between a dimeric fluorescent probe and PSD-95 PDZ1-2. Increasing concentrations of PDZ1-2 were added to a constant concentration (0.5 nM) of the probe. The fluorescence polarization of the samples was measured at excitation/emission wavelengths of 635/670 nm and the FP values were fitted to a one site binding model using the program GraphPad Prism. […] The FP values were fitted to a one site competition (variable slope) model in GraphPad Prism. The resulting IC50 were converted to competition inhibition constants, Ki values, as described (Nikolovska-Coleska et al, Anal Biochem, 2004, 332, 261-273). The modified FP assay was conducted as described above with 1% HSA in the assay. The synthesized FA-linked dimeric ligands were evaluated for their affinity to PSD-95 PDZ1-2 in the FP assay. […] We first measured the affinities using a simple tris-buffered saline (TBS) buffer (Table 2, FIG. 3A); but furthermore, we investigated if HSA influenced the ability of the FA-linked dimers to bind PSD95 PDZ1-2 by conducting the FP assay with HSA present in the assay buffer (Table 2, FIG. 3B). […] For a traditional small-molecule drug, it is commonly accepted that the unbound fraction of the drug is free to diffuse across membranes and exerts the physiological effect by interacting with its target (Berezhkovskiy et al, J Pharm Sci 2007, 96, 249-257). I.e. if the drug is bound to another molecule, then it cannot interact with the target at the same time.

[3] = FP in TBS with 1% HSA (~150 μM), mean ± SEM, n ≧ 3, read-out: Ki(PSD95) + HSA

Structure (SMILES) | fraction unbound [1] | also measured
CC[C@H](C)[C@H](NC(=O)CCOCCOCCN(CCOCCOCCC(=O)N[C@H](C(=O)N[C@@H](CCC(=O)O)C(=O)N[C@H](C(=O)N[C@@H](C)C(=O)N[C@H](C(=O)O)C(C)C)[C@@H](C)O)[C@@H](C)CC)C(=O)CC[C@H](NC(=O)CCCCCCCCCCC(=O)O)C(=O)O)C(=O)N[C@@H](CCC(=O)O)C(=O)N[C@H](C(=O)N[C@@H](C)C(=O)N[C@H](C(=O)O)C(C)C)[C@@H](C)O [Compound 6] | 0.301 | –
CC[C@H](C)[C@H](NC(=O)CCOCCOCCN(CCOCCOCCC(=O)N[C@H](C(=O)N[C@@H](CCC(=O)O)C(=O)N[C@H](C(=O)N[C@@H](C)C(=O)N[C@H](C(=O)O)C(C)C)[C@@H](C)O)[C@@H](C)CC)C(=O)CCCCNC(=O)CCCCCCCCCCC(=O)O)C(=O)N[C@@H](CCC(=O)O)C(=O)N[C@H](C(=O)N[C@@H](C)C(=O)N[C@H](C(=O)O)C(C)C)[C@@H](C)O [Compound 10] | 0.615 | –
CCCCCCCCCCCC(=O)NCCCCC(=O)N(CCOCCOCCC(=O)N[C@H](C(=O)N[C@@H](CCC(=O)O)C(=O)N[C@H](C(=O)N[C@@H](C)C(=O)N[C@H](C(=O)O)C(C)C)[C@@H](C)O)[C@@H](C)CC)CCOCCOCCC(=O)N[C@H](C(=O)N[C@@H](CCC(=O)O)C(=O)N[C@H](C(=O)N[C@@H](C)C(=O)N[C@H](C(=O)O)C(C)C)[C@@H](C)O)[C@@H](C)CC [Compound 9] | 0.271 | –
CC[C@H](C)[C@H](NC(=O)CCOCCOCCN(CCOCCOCCC(=O)N[C@H](C(=O)N[C@@H](CCC(=O)O)C(=O)N[C@H](C(=O)N[C@@H](C)C(=O)N[C@H](C(=O)O)C(C)C)[C@@H](C)O)[C@@H](C)CC)C(=O)CCCNC(=O)CCCCCCCCCCC(=O)O)C(=O)N[C@@H](CCC(=O)O)C(=O)N[C@H](C(=O)N[C@@H](C)C(=O)N[C@H](C(=O)O)C(C)C)[C@@H](C)O [Compound 2] | 0.247 | –
CC[C@H](C)[C@H](NC(=O)CCOCCOCCN(CCOCCOCCC(=O)N[C@H](C(=O)N[C@@H](CCC(=O)O)C(=O)N[C@H](C(=O)N[C@@H](CC(=O)O)C(=O)N[C@H](C(=O)O)C(C)C)[C@@H](C)O)[C@@H](C)CC)C(=O)[C@H](CCCNC(=N)N)NC(=O)[C@H](CCCNC(=N)N)NC(=O)[C@H](CCCNC(=N)N)NC(=O)[C@H](CCC(N)=O)NC(=O)[C@H](CCCNC(=N)N)NC(=O)[C@H](CCCNC(=N)N)NC(=O)[C@H](CCCCN)NC(=O)[C@H](CCCCN)NC(=O)[C@H](CCCNC(=N)N)NC(=O)CNC(=O)[C@@H](N)Cc1ccc(O)cc1)C(=O)N[C@@H](CCC(=O)O)C(=O)N[C@H](C(=O)N[C@@H](CC(=O)O)C(=O)N[C@H](C(=O)O)C(C)C)[C@@H](C)O [UCCB01-144, reference compound] | – | fb (%), HSA bound fraction ([1]; calculated from KD at physiological concentration of HSA (588 μM), equation 2): 65% and 65.3 ± 2.9%; fraction unbound ([1]; calculated from equation 2 at HSA concentration of 150 μM, read-out: fu (%), calculated fraction of unbound drug): 0.679; Kd ([1]; mean ± SEM, n = 3, read-out: KD(HSA)): 318 µM
CC[C@H](C)[C@H](NC(=O)CCOCCOCCN(CCOCCOCCC(=O)N[C@H](C(=O)N[C@@H](CCC(=O)O)C(=O)N[C@H](C(=O)N[C@@H](C)C(=O)N[C@H](C(=O)O)C(C)C)[C@@H](C)O)[C@@H](C)CC)C(=O)CC[C@H](NC(=O)CCCCCCCCCCCCCCCCC(=O)O)C(=O)O)C(=O)N[C@@H](CCC(=O)O)C(=O)N[C@H](C(=O)N[C@@H](C)C(=O)N[C@H](C(=O)O)C(C)C)[C@@H](C)O [Compound 8] | 0.186 | –
CCCCCCCCCCCCCCCCCC(=O)NCCCC(=O)N(CCOCCOCCC(=O)N[C@H](C(=O)N[C@@H](CCC(=O)O)C(=O)N[C@H](C(=O)N[C@@H](C)C(=O)N[C@H](C(=O)O)C(C)C)[C@@H](C)O)[C@@H](C)CC)CCOCCOCCC(=O)N[C@H](C(=O)N[C@@H](CCC(=O)O)C(=O)N[C@H](C(=O)N[C@@H](C)C(=O)N[C@H](C(=O)O)C(C)C)[C@@H](C)O)[C@@H](C)CC [Compound 3] | 0.031 | Ki ([2]; FP data (TBS+HSA) corrected for calculated fu, read-out: Ki(PSD95), free ligand): 0.0572 µM; Ki [2, 3]: 1.89 ± 0.155 µM; Ki ([2]; FP in TBS, mean ± SEM, n ≧ 3, read-out: Ki(PSD95)): 0.0111 µM; Kd [1]: 4.8 µM
CCCCCCCCCCCCCCCCCC(=O)NCCCCC(=O)N(CCOCCOCCC(=O)N[C@H](C(=O)N[C@@H](CCC(=O)O)C(=O)N[C@H](C(=O)N[C@@H](C)C(=O)N[C@H](C(=O)O)C(C)C)[C@@H](C)O)[C@@H](C)CC)CCOCCOCCC(=O)N[C@H](C(=O)N[C@@H](CCC(=O)O)C(=O)N[C@H](C(=O)N[C@@H](C)C(=O)N[C@H](C(=O)O)C(C)C)[C@@H](C)O)[C@@H](C)CC [Compound 11] | 0.078 | Ki [2, 3]: 1.89 ± 0.1 µM
CC[C@H](C)[C@H](NC(=O)CCOCCOCCN(CCOCCOCCC(=O)N[C@H](C(=O)N[C@@H](CCC(=O)O)C(=O)N[C@H](C(=O)N[C@@H](C)C(=O)N[C@H](C(=O)O)C(C)C)[C@@H](C)O)[C@@H](C)CC)C(=O)CCCCNC(=O)CCCCCCCCCCCCCCCCC(=O)O)C(=O)N[C@@H](CCC(=O)O)C(=O)N[C@H](C(=O)N[C@@H](C)C(=O)N[C@H](C(=O)O)C(C)C)[C@@H](C)O [Compound 12] | 0.083 | –
CCCCCCCCCCCCCCCCCC(=O)N[C@@H](CCC(=O)N(CCOCCOCCC(=O)N[C@H](C(=O)N[C@@H](CCC(=O)O)C(=O)N[C@H](C(=O)N[C@@H](CC(=O)O)C(=O)N[C@H](C(=O)O)C(C)C)[C@@H](C)O)[C@@H](C)CC)CCOCCOCCC(=O)N[C@H](C(=O)N[C@@H](CCC(=O)O)C(=O)N[C@H](C(=O)N[C@@H](CC(=O)O)C(=O)N[C@H](C(=O)O)C(C)C)[C@@H](C)O)[C@@H](C)CC)C(=O)O [Compound 15] | 0.268 | Kd [1]: 55 ± 3.4 µM
CC[C@H](C)[C@H](NC(=O)CCOCCOCCN(CCOCCOCCC(=O)N[C@H](C(=O)N[C@@H](CCC(=O)O)C(=O)N[C@H](C(=O)N[C@@H](CC(=O)O)C(=O)N[C@H](C(=O)O)C(C)C)[C@@H](C)O)[C@@H](C)CC)C(=O)CCCNC(=O)CCCCCCCCCCCCCCCCC(=O)O)C(=O)N[C@@H](CCC(=O)O)C(=O)N[C@H](C(=O)N[C@@H](CC(=O)O)C(=O)N[C@H](C(=O)O)C(C)C)[C@@H](C)O [Compound 14] | 0.436 | Kd [1]: 116 ± 7.6 µM
CCCCCCCCCCCC(=O)N[C@@H](CCC(=O)N(CCOCCOCCC(=O)N[C@H](C(=O)N[C@@H](CCC(=O)O)C(=O)N[C@H](C(=O)N[C@@H](C)C(=O)N[C@H](C(=O)O)C(C)C)[C@@H](C)O)[C@@H](C)CC)CCOCCOCCC(=O)N[C@H](C(=O)N[C@@H](CCC(=O)O)C(=O)N[C@H](C(=O)N[C@@H](C)C(=O)N[C@H](C(=O)O)C(C)C)[C@@H](C)O)[C@@H](C)CC)C(=O)O [Compound 5] | 0.147 | –
